Data on 23 compounds can be found in patent US20230295096A1, “PYRAZOLE CARBOXAMIDE COMPOUNDS FOR TREATMENT OF HBV” (ASSEMBLY BIOSCIENCES, INC., priority 2020, published 2023).

Broadly, the EC50 is the midpoint of the concentration-response curve.

The structures appear in SMILES notation.

For one experiment, the system named is HBV. In words: Viral load production from HepAD38 cells, qPCR of the HBV core sequence in supernatant. It is filed as cell-based. The settings on record: HepAD38 cells, 5 days, HBV DNA in supernatant by qPCR; Table 1 ranges; read-out: Activity (viral load lowering EC50). How it is done:
HepAD38 cells grown in a T-150 flask (Corning, cat#: 430825) with Growth Medium (DMEM/F12 (1:1) (Hyclone, cat#: SH30023.02), 1X Pen/Strep (Invitrogen, cat#: 15140-122), 10% FBS (Tissue Culture Biologics, cat#: 101), 250 µg/mL G418 (Alfa Aesar, cat#: J62671), 1 µg/mL Tetracycline (Teknova, cat#: T3320)) were detached with 0.25% trypsin-EDTA (Invitrogen, cat#: 25200-056). Tetracycline-free treatment medium (15 mL DMEM/F12 (1:1) 1× Pen/step, with 2% FBS, Tet-system approved (Clontech, cat#: 631106) were then added to mix, transferred into a 50 ml conical tube (Falcon, cat#: 21008-918,) and spun at 1300 rpm for 5 min. Pelleted cells were then re-suspended/washed with 50 mL of 1X DPBS (Invitrogen, cat#: 14190-136) 2 times and 50 mL treatment medium twice. HepAD38 cells were then re-suspended with 10 mL of treatment medium, syringed and counted. Wells of 96-well clear bottom TC plate (Corning, cat#: 3904,) were seeded at 50.000 cells/well in 180 µL of treatment medium, and 20 µL of either 10% DMSO (Sigma, cat#: D4540) as controls or a 10X solution of test compounds in 10% DMSO in treatment media was added for a final compound concentration starting at 10 µM, and plates were incubated in 5% CO2 incubator at 37° C. for 5 days.
Subsequently viral load production was assayed by quantitative PCR (qPCR) of the HBV core sequence. PCR reaction mixture containing forward primers HBV-f 5′-CTGTGCCTTGGGTGGCTTT-3′ (IDT DNA), Reverse primers HBV-r 5′-[…]-3′ (IDT DNA), Fluorescent TaqMan^tm Probes HBV-probe 5′-FAM/AGCTCCAAA/ZEN/[…]/3IABkFQ-3′ (IDT DNA), 10 µL/well of PerfeCTa® qPCR ToughMix® (Quanta Biosciences, Cat#: 95114-05 K), and 6 µL/well of DEPC water (Alfa Aesar, cat#: J62087) was prepared. Four µL of supernatant was added to 16 µL of the reaction mixture in a qPCR plate (Applied Biosytems, Cat#: 4309849), sealed with a film (Applied Biosystems, Cat#: 4311971), centrifuged for a few seconds, and subsequently run on an Applied Biosystems VIIA7. The PCR mixture was incubated at 45° C. for 5 min, then 95° C. for 10 min, followed by 40 cycles of 10 seconds at 95° C. and 20 seconds at 60° C. Viral load was quantified against known HBV DNA standards by using ViiA™ 7 Software. Viral load in the supernatant from wells with treated cells were compared against viral load in supernatant from DMSO control wells (≥ 3 per plate). Cell viability assay was performed with CellTiter-Glo Luminescent Cell Viability Assay (Promega, cat#: G7573) with modification. Mixed appropriate amount of CellTiter-Glo (CTG) 1X DPBS in a 1:1 ratio, added 100 uL of the mixture to each well followed completely removal of all supernatant in each well without touching cell surface. Incubated the plate at room temperature for 10 min on an orbital shaker, and then read the plate with a plate reader (TECAN M1000 or Envision). EC50 or CC50 values were calculated through curve-fitting of the four-parameter nonlinear-logistic-regression model (GraphPad Prism or Dotmatics). CC50 values were all >10 µM.
For orientation: Real-time PCR tracks product formation cycle by cycle.
As to `Cn1nc(C2CC3CC(O)(CNc4ncc(C(F)F)cn4)CC3C2)c(C(=O)Nc2ccc(F)c(Cl)c2)c1N` (single isomer, unassigned) [Example 202B], the EC50 lay within 50 to 500 nM.

The same experiment, now with this note: Hepatitis B virus, HePAD38, 120 h, HepAD38 cells, 5 days, HBV DNA in supernatant by qPCR; Table 1 ranges; read-out: Activity (viral load lowering EC50).
For the compound `Cn1nc(C2CC3CN(c4cnc(C(F)(F)F)cn4)CC3C2)c(C(=O)Nc2ccc(F)c(Cl)c2)c1N` (centres unmarked) [Example 135, 5-Amino-N-(3-chloro-4-fluorophenyl)-1-methyl-3-(2-(5-(trifluoromethyl)pyrazin-2-yl)octahydrocyclopenta[c]pyrrol-5-yl)-1H-pyrazole-4-carboxamide], the EC50 lay in the range of 50 to 500 nM. The same measure, in the same setting: as for `Cn1nc(C2CC3CN(C(=O)c4cccc(F)c4)CC3C2)c(C(=O)Nc2ccc(F)c(Cl)c2)c1N` (centres unmarked) [Example 121, 5-Amino-N-(3-chloro-4-fluorophenyl)-3-(2-(3-fluorobenzoyl)octahydrocyclopenta[c]pyrrol-5-yl)-1-methyl-1H-pyrazole-4-carboxamide], the figure is 10 to 50 nM; as for `Cn1nc(C2CC3CC(CNC(=O)COCCOCCNC(=O)OC(C)(C)C)CC3C2)c(C(=O)Nc2ccc(F)c(Cl)c2)c1N` (centres unmarked) [Example 74, tert-Butyl (2-(2-(2-(((5-(5-amino-4-((3-chloro-4-fluorophenyl)carbamoyl)-1-methyl-1H-pyrazol-3-yl)octahydropentalen-2-yl)methyl)amino)-2-oxoethoxy)ethoxy)ethyl)carbamate], less than 10 nM; as for `Cn1nc(C2CC3CC(CNC(=O)C4(C)CC4)CC3C2)c(C(=O)Nc2ccc(F)c(Cl)c2)c1N` (centres unmarked) [Example 65, 5-Amino-N-(3-chloro-4-fluorophenyl)-1-methyl-3-(5-((1-methylcyclopropane-1-carboxamido)methyl)octahydropentalen-2-yl)-1H-pyrazole-4-carboxamide], less than 10 nM. On the same count and under the same terms, as for `CNS(=O)(=O)NCC1CC2CC(c3nn(C)c(N)c3C(=O)Nc3ccc(F)c(Cl)c3)CC2C1` (centres unmarked) [Example 83, 5-Amino-N-(3-chloro-4-fluorophenyl)-1-methyl-3-(5-(((N-methylsulfamoyl)amino)methyl)octahydropentalen-2-yl)-1H-pyrazole-4-carboxamide], the figure is less than 10 nM; as for `CCS(=O)(=O)NCC1CC2CC(c3nn(C)c(N)c3C(=O)Nc3ccc(F)c(Cl)c3)CC2C1` (centres unmarked) [Example 87, 5-Amino-N-(3-chloro-4-fluorophenyl)-3-(5-(ethylsulfonamidomethyl)octahydropentalen-2-yl)-1-methyl-1H-pyrazole-4-carboxamide], less than 10 nM; as for `Cn1nc(C2CC3CC(CNS(=O)(=O)c4ccc(OC(F)(F)F)cc4)CC3C2)c(C(=O)Nc2ccc(F)c(Cl)c2)c1N` (centres unmarked) [Example 84, 5-Amino-N-(3-chloro-4-fluorophenyl)-1-methyl-3-(5-(((4-(trifluoromethoxy)phenyl)sulfonamido)methyl)octahydropentalen-2-yl)-1H-pyrazole-4-carboxamide], 50 to 500 nM. The same measure, in the same setting: as for `CN(C)C(=O)NCC1CC2CC(c3nn(C)c(N)c3C(=O)Nc3ccc(F)c(Cl)c3)CC2C1` (single isomer, unassigned) [Example 41, 5-Amino-N-(3-chloro-4-fluorophenyl)-3-(5-((3,3-dimethylureido)methyl)octahydropentalen-2-yl)-1-methyl-1H-pyrazole-4-carboxamide], the figure is less than 10 nM. Turning to `Cn1nc(C2CC3CC(O)(c4ccccn4)CC3C2)c(C(=O)Nc2ccc(F)c(Cl)c2)c1N` (centres unmarked) [Example 14, 5-Amino-N-(3-chloro-4-fluorophenyl)-3-(5-hydroxy-5-(pyridin-2-yl)octahydropentalen-2-yl)-1-methyl-1H-pyrazole-4-carboxamide], the EC50 was less than 10 nM. On the same count and under the same terms, the result for `Cn1ncc(C2(O)CC3CC(c4nn(C)c(N)c4C(=O)Nc4ccc(F)c(Cl)c4)CC3C2)n1` (centres unmarked) [Example 195] reads less than 10 nM; that for `Cn1nc(C2CC3CC(CNC(=O)C4CCCCC4)CC3C2)c(C(=O)Nc2ccc(F)c(Cl)c2)c1N` (centres unmarked) [Example 76, 5-Amino-N-(3-chloro-4-fluorophenyl)-3-(5-(cyclohexanecarboxamidomethyl)octahydropentalen-2-yl)-1-methyl-1H-pyrazole-4-carboxamide], 10 to 50 nM. In the case of `Cn1nc(C2CC3CC(N4CCC(C(N)=O)CC4)CC3C2)c(C(=O)Nc2ccc(F)c(Cl)c2)c1N` (centres unmarked) [Example 187], the EC50 lay within 50 to 500 nM. The same measure, in the same setting: the result for `Cn1nc(C2CC3CC(O)(c4ccc(F)cc4)CC3C2)c(C(=O)Nc2ccc(F)c(C#N)c2)c1N` (centres unmarked) [Example 9, 5-Amino-N-(3-cyano-4-fluorophenyl)-3-(5-(4-fluorophenyl)-5-hydroxyoctahydropentalen-2-yl)-1-methyl-1H-pyrazole-4-carboxamide] reads less than 10 nM; that for `Cn1nc(C2CC3CC(O)(C(F)(F)C(F)(F)F)CC3C2)c(C(=O)Nc2ccc(F)c(Cl)c2)c1N` (centres unmarked) [Example 32, 5-Amino-N-(3-chloro-4-fluorophenyl)-3-(5-hydroxy-5-(perfluoroethyl)octahydropentalen-2-yl)-1-methyl-1H-pyrazole-4-carboxamide], 10 to 50 nM.

As for `Cn1nc(C2CC3CN(C4COC4)CC3C2)c(C(=O)Nc2ccc(F)c(Cl)c2)c1N` (centres unmarked) [Example 117, 5-Amino-N-(3-chloro-4-fluorophenyl)-1-methyl-3-(2-(oxetan-3-yl)octahydrocyclopenta[c]pyrrol-5-yl)-1H-pyrazole-4-carboxamide], the EC50 lay in the range of 50 to 500 nM. On the same count and under the same terms, the result for `Cn1nc(C2CC3CN(C(=O)NC4CC(F)(F)C4)CC3C2)c(C(=O)Nc2ccc(F)c(Cl)c2)c1N` (centres unmarked) [Example 123, 5-(5-Amino-4-((3-chloro-4-fluorophenyl)carbamoyl)-1-methyl-1H-pyrazol-3-yl)-N-(3,3-difluorocyclobutyl)hexahydrocyclopenta[c]-pyrrole-2(1H)-carboxamide] reads 50 to 500 nM. The same measure, in the same setting: as for `Cc1coc(C2(O)CC3CC(c4nn(C)c(N)c4C(=O)Nc4ccc(F)c(Cl)c4)CC3C2)n1` (centres unmarked) [Example 183], the figure is less than 10 nM; as for `Cn1nc(C2CC3CC(CNC(=O)C(C)(C)C4CCN(C(=O)OC(C)(C)C)CC4)CC3C2)c(C(=O)Nc2ccc(F)c(Cl)c2)c1N` (centres unmarked) [Example 70, tert-Butyl 4-(1-(((5-(5-amino-4-((3-chloro-4-fluorophenyl)carbamoyl)-1-methyl-1H-pyrazol-3-yl)octahydropentalen-2-yl)methyl)amino)-2-methyl-1-oxopropan-2-yl)piperidine-1-carboxylate], 10 to 50 nM. Still for that read-out and setting: the result for `Cn1nc(C2CC3CC(O)(c4ncc(C(F)(F)F)n4C)CC3C2)c(C(=O)Nc2ccc(F)c(Cl)c2)c1N` (centres unmarked) [Example 167] reads 10 to 50 nM; that for `Cn1nc(C2CC3CC(O)(C(F)F)CC3C2)c(C(=O)Nc2ccc(F)c(Cl)c2)c1N` (centres unmarked) [Example 30, 5-Amino-N-(3-chloro-4-fluorophenyl)-3-(5-(difluoromethyl)-5-hydroxyoctahydropentalen-2-yl)-1-methyl-1H-pyrazole-4-carboxamide], 10 to 50 nM.

Staying with this experiment, now noted: Hepatitis B virus, HePAD38, 120 h, HepAD38 cells, 5 days, HBV DNA in supernatant by qPCR; Table 2 ranges; read-out: VL HepAD38 EC50 range.
Regarding `Cn1nc(C2CC3CC(O)C(c4ccccc4)C3C2)c(C(=O)Nc2ccc(F)c(Cl)c2)c1N` (single isomer, unassigned) [Example 141, 5-Amino-N-(3-chloro-4-fluorophenyl)-3-(5-hydroxy-4-phenyloctahydropentalen-2-yl)-1-methyl-1H-pyrazole-4-carboxamide], the EC50 was less than 100 nM. As for `Cn1nc(C2CC3CC(=O)C(c4ccccc4)C3C2)c(C(=O)Nc2ccc(F)c(Cl)c2)c1N` (centres unmarked) [Example 140, 5-Amino-N-(3-chloro-4-fluorophenyl)-1-methyl-3-(5-oxo-4-phenyloctahydropentalen-2-yl)-1H-pyrazole-4-carboxamide], the EC50 is less than 100 nM.
